According to patent US8716242B2, “β-hairpin peptidomimetics” (priority 2009, dated 2014):
Numbered stars: 1 amine (or outer) side, 2 acyl side, 3 side chain; on linkers, the order of the positions; unused ones are H or OH. Bridge positions count the residues as written; N and C are the ends. Square brackets hold non-standard residues; d marks the D form. Side chains are listed from the residue outwards. Peptide text beside a SMILES is read from it. * marks the point of attachment. γGlu = O=C(O)[C@H](CCC(=O)[*:2])N[*:1]; Palmitoyl = CCCCCCCCCCCCCCCC(=O)*; Myristoyl = CCCCCCCCCCCCCC(=O)*; Lauroyl = CCCCCCCCCCCC(=O)*; Dab = NCC[C@H](N)C(=O)O

Key:
human CXCR4 = biological target: T1, human CXCR4 (Homo sapiens, UniProt P61073); assay: Ca2+-assay: CXCR4-antagonizing activity (SDF-1 induced calcium mobilization); format: cell-based; settings: mouse pre-B cell line 300-19 transfected with human CXCR4; SDF-1 induced Ca2+ mobilization; read-out: IC50% [nM] ± SD, CXCR4 receptor
T1 construct: expressed in transfected cells; host or cells: mouse pre-B cell line 300-19
Method in brief: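 Mouse pre-B 300-19 cells stably expressing human CXCR4, loaded with Calcium 4 dye in HBSS/20 mM HEPES pH 7.4/0.1% BSA for 1 h at RT. Peptides added before SDF-1; fluorescence (ex 485/em 525 nm) followed for 90 s. IC50 from four-parameter logistic fit of % maximal SDF-1 response.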

[1] = Cytotoxicity, MTT reduction assay, HELA cells; format: cell-based; settings: human, HELA cells (Acc57), 12.5-50 μM
Method in brief: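 HELA (4000/well) and COS-7 (3400/well) cells were grown 24 h, then exposed 48 h at 37° C to peptides at 12.5, 25 and 50 μM in triplicate. MTT reduction read at 595 nm; growth % relative to time-zero, and GI50 interpolated by trend line.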

T1 sequence (P61073 whole entry): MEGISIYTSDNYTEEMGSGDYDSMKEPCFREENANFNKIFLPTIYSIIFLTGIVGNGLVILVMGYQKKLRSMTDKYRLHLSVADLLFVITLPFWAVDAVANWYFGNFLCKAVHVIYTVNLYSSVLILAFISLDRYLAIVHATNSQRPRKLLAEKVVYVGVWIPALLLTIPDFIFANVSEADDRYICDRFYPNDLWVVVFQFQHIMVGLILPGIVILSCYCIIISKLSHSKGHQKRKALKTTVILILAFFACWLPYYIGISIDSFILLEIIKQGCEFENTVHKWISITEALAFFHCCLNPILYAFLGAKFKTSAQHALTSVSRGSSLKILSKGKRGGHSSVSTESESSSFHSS

SMILES	IC50 (human CXCR4) [nM]	GI50 at 48 h [1] [nM]
CCCCCCCCCCCCCCCC(=O)N[C@@H](CCC(=O)NCCCC[C@@H]1NC(=O)[C@H](Cc2ccc(O)cc2)NC(=O)[C@@H]2CSSC[C@H](NC(=O)[C@H](Cc3ccc(O)cc3)NC(=O)[C@H](Cc3c[nH]cn3)NC(=O)[C@H](Cc3ccc(O)cc3)NC(=O)[C@@H]3CCCN3C(=O)[C@H]3CCCN3C(=O)[C@H](CCCCN)NC1=O)C(=O)N[C@@H](CO)C(=O)N[C@@H](C)C(=O)N1CCC[C@@H]1C(=O)N[C@@H](CCN)C(=O)N[C@@H](CCCNC(=N)N)C(=O)N[C@@H](Cc1ccc(O)cc1)C(=O)N2)C(=O)O [Ex. 29] (cyclo(YHYCSA[dP][Dab]RYCYK([γGlu-Palmitoyl])K[dP]P); disulfide 4-11)	1.9 ± 0.8	> 47000
CCCCCCCCCCCC(=O)N[C@@H](CCC(=O)NCCCC[C@@H]1NC(=O)[C@H](Cc2ccc(O)cc2)NC(=O)[C@@H]2CSSC[C@H](NC(=O)[C@H](Cc3ccc(O)cc3)NC(=O)[C@H](Cc3c[nH]cn3)NC(=O)[C@H](Cc3ccc(O)cc3)NC(=O)[C@@H]3CCCN3C(=O)[C@H]3CCCN3C(=O)[C@H](CCCCN)NC1=O)C(=O)N[C@@H](CO)C(=O)N[C@@H](C)C(=O)N1CCC[C@@H]1C(=O)N[C@@H](CCN)C(=O)N[C@@H](CCCNC(=N)N)C(=O)N[C@@H](Cc1ccc(O)cc1)C(=O)N2)C(=O)O [Ex. 25] (cyclo(YHYCSA[dP][Dab]RYCYK([γGlu-Lauroyl])K[dP]P); disulfide 4-11)	3.5 ± 0.1	> 43000
CCCCCCCCCCCCCCCC(=O)NCCCC[C@@H]1NC(=O)[C@H](Cc2ccc(O)cc2)NC(=O)[C@@H]2CSSC[C@H](NC(=O)[C@H](Cc3ccc(O)cc3)NC(=O)[C@H](Cc3c[nH]cn3)NC(=O)[C@H](Cc3ccc(O)cc3)NC(=O)[C@@H]3CCCN3C(=O)[C@H]3CCCN3C(=O)[C@H](CCCCN)NC1=O)C(=O)N[C@@H](CO)C(=O)N[C@@H](C)C(=O)N1CCC[C@@H]1C(=O)N[C@@H](CCN)C(=O)N[C@@H](CCCNC(=N)N)C(=O)N[C@@H](Cc1ccc(O)cc1)C(=O)N2 [Ex. 20] (cyclo(YHYCSA[dP][Dab]RYCYK(Palmitoyl)K[dP]P); disulfide 4-11)	4 ± 1.8	> 31000
CCCCCCCCCCCC(=O)NCCCC[C@@H]1NC(=O)[C@H](Cc2ccc(O)cc2)NC(=O)[C@@H]2CSSC[C@H](NC(=O)[C@H](C)NC(=O)[C@H](Cc3c[nH]cn3)NC(=O)[C@H](Cc3ccc(O)cc3)NC(=O)[C@@H]3CCCN3C(=O)[C@H]3CCCN3C(=O)[C@H](CCCCN)NC1=O)C(=O)N[C@@H](CCCNC(=N)N)C(=O)N[C@@H](C)C(=O)N1CCC[C@@H]1C(=O)N[C@@H](CCN)C(=O)N[C@@H](CCCNC(=N)N)C(=O)N[C@@H](Cc1ccc(O)cc1)C(=O)N2 [Ex. 17] (cyclo(YHACRA[dP][Dab]RYCYK(Lauroyl)K[dP]P); disulfide 4-11)	2.8 ± 0.4	> 44000
CCCCCCCCCCCC(=O)N[C@@H](CCC(=O)NCCCC[C@@H]1NC(=O)[C@H](Cc2ccc(O)cc2)NC(=O)[C@@H]2CSSC[C@H](NC(=O)[C@H](C)NC(=O)[C@H](Cc3c[nH]cn3)NC(=O)[C@H](Cc3ccc(O)cc3)NC(=O)[C@@H]3CCCN3C(=O)[C@H]3CCCN3C(=O)[C@H](CCCCN)NC1=O)C(=O)N[C@@H](CCCNC(=N)N)C(=O)N[C@@H](C)C(=O)N1CCC[C@@H]1C(=O)N[C@@H](CCN)C(=O)N[C@@H](CCCNC(=N)N)C(=O)N[C@@H](Cc1ccc(O)cc1)C(=O)N2)C(=O)O [Ex. 26] (cyclo(YHACRA[dP][Dab]RYCYK([γGlu-Lauroyl])K[dP]P); disulfide 4-11)	2.4 ± 0.5	> 50000
CCCCCCCCCCCCCC(=O)N[C@@H](CCC(=O)NCCCC[C@@H]1NC(=O)[C@H](Cc2ccc(O)cc2)NC(=O)[C@@H]2CSSC[C@H](NC(=O)[C@H](Cc3ccc(O)cc3)NC(=O)[C@H](Cc3c[nH]cn3)NC(=O)[C@H](Cc3ccc(O)cc3)NC(=O)[C@@H]3CCCN3C(=O)[C@H]3CCCN3C(=O)[C@H](CCCCN)NC1=O)C(=O)N[C@@H](CO)C(=O)N[C@@H](C)C(=O)N1CCC[C@@H]1C(=O)N[C@@H](CCN)C(=O)N[C@@H](CCCNC(=N)N)C(=O)N[C@@H](Cc1ccc(O)cc1)C(=O)N2)C(=O)O [Ex. 28] (cyclo(YHYCSA[dP][Dab]RYCYK([γGlu-Myristoyl])K[dP]P); disulfide 4-11)	2.1 ± 0.1	> 39000
